Measured values as given in patent publication US20240116877A1, “KIT KINASE INHIBITORS AND METHODS OF USE THEREOF” (Deciphera Pharmaceuticals, LLC, priority 2021, published 2024).
Like-named read-outs stand apart in the source and are kept apart here.

How the values were obtained:
c-KIT kinase (uKIT) = c-KIT kinase (uKIT) (Homo sapiens (Human), UniProt P10721); test: Biochemical Assay for uKIT (coupled pyruvate kinase/lactate dehydrogenase assay); settings: Inhibition of biochemical activity of uKIT kinase; 1 mM ATP
c-KIT kinase (uKIT), sequence (P10721 other isoform, or with tags, fused parts or gaps): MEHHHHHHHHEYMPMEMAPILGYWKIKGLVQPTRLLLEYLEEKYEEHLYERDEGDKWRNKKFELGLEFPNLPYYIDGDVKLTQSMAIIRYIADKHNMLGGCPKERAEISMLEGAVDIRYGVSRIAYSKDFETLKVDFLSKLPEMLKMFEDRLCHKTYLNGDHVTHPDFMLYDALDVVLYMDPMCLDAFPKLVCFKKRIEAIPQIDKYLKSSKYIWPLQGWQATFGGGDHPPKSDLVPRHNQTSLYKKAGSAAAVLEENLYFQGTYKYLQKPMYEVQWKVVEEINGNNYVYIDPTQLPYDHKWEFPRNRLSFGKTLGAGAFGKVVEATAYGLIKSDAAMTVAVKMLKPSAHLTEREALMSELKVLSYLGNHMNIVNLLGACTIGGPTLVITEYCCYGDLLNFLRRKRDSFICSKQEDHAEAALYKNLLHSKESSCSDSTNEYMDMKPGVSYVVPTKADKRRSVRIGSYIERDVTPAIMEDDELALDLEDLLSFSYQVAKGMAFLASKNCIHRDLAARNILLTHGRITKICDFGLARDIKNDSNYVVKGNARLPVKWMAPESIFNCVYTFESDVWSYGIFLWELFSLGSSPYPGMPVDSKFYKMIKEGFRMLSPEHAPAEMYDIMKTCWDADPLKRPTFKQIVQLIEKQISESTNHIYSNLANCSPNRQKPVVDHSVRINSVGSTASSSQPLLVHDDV
Protocol: Biochemical Assay for uKIT
Activity of c-KIT kinase (SEQ. ID NO. 1 or SEQ. ID NO. 2) was determined spectroscopically using a coupled pyruvate kinase/lactate dehydrogenase assay that continuously monitors the ATP hydrolysis-dependent oxidation of NADH (e.g., Schindler et al. Science (2000) 289: 1938-1942). Assays were conducted in 384-well plates (100 μL final volume) using 16 nM (Decode, SEQ ID No. 1) or 4.36 nM (Signal Chem, SEQ. ID No. 2), 0.7 mg/mL PE4Y substrate, 1.5 units pyruvate kinase, 2.1 units lactate dehydrogenase, 1 mM phosphoenol pyruvate, 0.28 mM NADH and 1 mM ATP in assay buffer (100 mM Tris, pH 7.5, 15 mM MgCl2, 0.5 mM DTT, 0.1% octyl-glucoside, 0.002% (w/v) BSA, and 0.002% Triton X-100). Inhibition of KIT was measured by adding serial diluted test compound (final assay concentration of 1% DMSO). A decrease in absorption at 340 nm was monitored continuously for 6 h at 30° C. on a multi-mode microplate reader (BioTek). The reaction rate was calculated using the 2-3 h time frame. The reaction rate at each concentration of compound was converted to percent inhibition using controls (i.e., reaction with no test compound and reaction with a known inhibitor) and IC50 values were calculated using software routines in Prism (GraphPad software).

Ba/F3 KIT mutant cells = test: Ba/F3 mutant KIT Cell Proliferation Assays (resazurin); assay type: cell-based; settings: Mus musculus, BaF3
Protocol: Ba/F3 KIT Mutant Cell Line Transduction and Expansion
Several different KIT cDNA encoding various primary and secondary mutations were cloned into a pLV(Exp]-CMV>(cDNA):IRES:puro vector. These vectors were constructed and packaged by VectorBuilder.
Exponentially grown Ba/F3 cells (1×10^6 cells in 1 ml medium) were infected with 60 μl of viral suspension in a 6-well plate in the presence of mIL-3 (10 ng/ml) and polybrene (7.5 μg/ml) (Vector Builder) and incubated for 16 h. After 16 h, the cells were centrifuged, and viral supernatant was discarded. The cells were then re-suspended in fresh medium and allowed to recover for another day. After 72 h post infection, the cells were seeded with complete medium with mIL-3 and with 1 μg/ml puromycin added to medium for selection. After 48 h, cells without viral infection die, whereas successfully transduced cells were collected and changed to fresh medium with 5 ng/ml of IL-3. After a week or two with gradual withdrawal of mIL3 the cells that can continue to proliferate in the absence of mIL3 were exponentially expanded and were frozen down for banking.
Ba/F3 mutant KIT Cell Proliferation Assays
(§1) A serial dilution of test compound was dispensed into a 384-well black clear bottom plate (Corning, Corning, NY). Six hundred and twenty-five cells were added per well in 50 μL complete growth medium. Plates were incubated for 68 h at 37° C., 5% CO2, 95% humidity. At the end of the incubation period 10 μL of a 440 μM solution of resazurin (Sigma, St. Louis, MO) in PBS was added to each well and incubated for an additional 5 h at 37° C., 5% CO2, 95% humidity. Plates were read on a Synergy2 reader (Biotek, Winooski, VT) using an excitation of 540 nm and an emission of 600 nm. Data was analyzed using Prism software (Graphpad, San Diego, CA) to calculate IC50 values.

GIST 430 cells = test: GIST 430 Cell Proliferation Assay (resazurin); assay type: cell-based; settings: Homo sapiens; GIST430 cell proliferation
Protocol: GIST 430 Cell Proliferation Assay
as §1, with “a 96-well” for “a 384-well”, “NY). Five thousand” for “NY). Six hundred and twenty-five”, “in 200” for “in 50”, “for 115” for “for 68”, “at 37 degrees Celsius,” for “at 37° C.,”, “period 40” for “period 10”

[1] = Ba/F3 KIT exon11del-V654A mutant cell proliferation, read-out: exon11del-V654A IC50
[2] = Ba/F3 KIT AYdup-V654A mutant cell proliferation, read-out: AYdup-V654A IC50
[3] = Ba/F3 KIT exon11del-Y823D mutant cell proliferation, read-out: exon11del-Y823D IC50

Row | SMILES | IC50 (c-KIT kinase (uKIT)) [nM] | IC50 (Ba/F3 KIT mutant cells; [1]) [nM] | IC50 (Ba/F3 KIT mutant cells; [2]) [nM] | IC50 (Ba/F3 KIT mutant cells; [3]) [nM] | IC50 (Ba/F3 KIT mutant cells; Ba/F3 KIT AYdup mutant cell proliferation, read-out: AYdup IC50) [nM] | IC50 (Ba/F3 KIT mutant cells; Ba/F3 KIT AYdup-D816G mutant cell proliferation, read-out: AYdup-D816G IC50) [nM] | IC50 (GIST 430 cells) [nM]
1 | CN(C)CCOc1cc(F)c2c(Nc3ccc(NC(=O)NCCC(C)(C)C#N)cc3)ncnc2c1 [Example 80] | > 1000 | > 1000 | – | – | – | – | –
2 | COCCOc1cc(F)c2c(Nc3ccc(NC(=O)CCC(=O)NC(C)C)cc3)ncnc2c1 [Example 87] | 10 to 100 | 100 to 1000 | 100 to 1000 | – | – | – | –
3 | COCCOc1cc(F)c2c(Nc3ccc(NC(=O)C(=O)NC(C)(C)C)cc3)ncnc2c1 [Example 134] | > 1000 | 100 to 1000 | > 1000 | > 1000 | – | – | –
4 | CC(C)(F)CCNC(=O)Nc1ccc(Nc2ncnc3cc(O[C@H]4CCOC4)cc(F)c23)cc1 [Example 160] | – | 10 to 100 | 10 to 100 | 10 to 100 | ≤ 10 | 10 to 100 | 10 to 100
5 | COc1cc(F)c2c(Nc3ccc(NC(=O)NCCC(C)(C)OC)cc3)ncnc2c1 [Example 202] | 10 to 100 | 10 to 100 | 10 to 100 | 10 to 100 | – | – | –
6 | COc1cc(F)c2c(Nc3ccc(NC(=O)NCCC(C)(C)F)cc3)ncnc2c1 [Example 203] | ≤ 10 | 10 to 100 | 10 to 100 | 10 to 100 | – | – | –
7 | COCCOc1cc(OC)c2c(Nc3ccc(NC(=O)CC(=O)NCC(C)(C)C)cc3)ncnc2c1 [Example 204] | 10 to 100 | 100 to 1000 | 10 to 100 | 10 to 100 | – | – | –
8 | COCCOc1ccc2c(Nc3ccc(NC(=O)CC(=O)NCC(C)(C)C)cn3)ccnc2c1 [Example 205] | > 1000 | > 1000 | > 1000 | > 1000 | – | – | –
9 | COc1cc2ncnc(Nc3ccc(NC(=O)CC(=O)NCC(C)(C)C)cc3)c2cc1OCCCN1CCOCC1 [Example 206] | 100 to 1000 | > 1000 | 100 to 1000 | > 1000 | – | – | –
10 | COc1cc2ncnc(Nc3ccc(NC(=O)NCCC(C)(C)F)cc3)c2cc1OC [Example 209] | 10 to 100 | 100 to 1000 | > 1000 | > 1000 | – | – | –
11 | COc1cc2ncnc(Nc3ccc(NC(=O)NCCC(C)(C)OC)cc3)c2cc1OC [Example 210] | 10 to 100 | > 1000 | > 1000 | > 1000 | – | – | –
12 | COc1cc(F)c2c(Nc3ccc(NC(=O)CC(=O)NCC(C)(C)C)cc3)ncnc2c1 [Example 211] | 10 to 100 | 10 to 100 | 10 to 100 | 10 to 100 | – | – | –
13 | COc1cc2ncnc(Nc3ccc(NC(=O)CC(=O)NCC(C)(C)C)cc3)c2cc1OC [Example 213] | 10 to 100 | > 1000 | 100 to 1000 | > 1000 | – | – | –
14 | COc1cc2ncnc(Nc3ccc(NC(=O)NCCC(C)(C)C#N)cc3)c2cc1OC [Example 218] | – | > 1000 | 100 to 1000 | > 1000 | – | – | –
15 | COCCOc1ccc2c(Nc3ccc(NC(=O)NCCC(C)(C)F)cc3)ncnc2c1 [Example 220] | ≤ 10 | 100 to 1000 | 100 to 1000 | 10 to 100 | – | – | –
16 | COCCOc1cc2ncnc(Nc3ccc(NC(=O)NCCC(C)(C)F)cc3)c2cc1OCCOC [Example 222] | 10 to 100 | – | – | – | – | – | –
17 | COCCOc1ccc2c(Nc3ccc(NC(=O)NCCC(C)(C)OC)cc3)ncnc2c1 [Example 225] | ≤ 10 | – | – | – | – | – | –
18 | COCCOc1ccc2c(Nc3ccc(NC(=O)NCCC(C)(C)C#N)cn3)ncnc2c1 [Example 226] | 100 to 1000 | – | – | – | – | – | –

Now from value to compound, other results behind:

Row | IC50 (c-KIT kinase (uKIT)) [nM] | IC50 (Ba/F3 KIT mutant cells; [1]) [nM] | IC50 (Ba/F3 KIT mutant cells; [2]) [nM] | IC50 (Ba/F3 KIT mutant cells; [3]) [nM] | IC50 (Ba/F3 KIT mutant cells; Ba/F3 KIT AYdup mutant cell proliferation, read-out: AYdup IC50) [nM] | IC50 (Ba/F3 KIT mutant cells; Ba/F3 KIT AYdup-D816G mutant cell proliferation, read-out: AYdup-D816G IC50) [nM] | SMILES | IC50 (GIST 430 cells) [nM]
19 | – | > 1000 | > 1000 | 100 to 1000 | – | – | CC(C)(F)CCNC(=O)Nc1ccc(Nc2ncnc3cc(O[C@@H]4CCOC4)cc(F)c23)cc1 [Example 180] | > 1000
20 | 10 to 100 | – | – | – | – | – | COCCCc1ccc2c(Nc3ccc(NC(=O)CC(=O)NCC(C)(C)C)cc3)cnnc2c1 [Example 193] | –
21 | 100 to 1000 | > 1000 | > 1000 | > 1000 | – | – | COCCOc1cc(F)c2c(Nc3ccc(NC(=O)CC(=O)N4[C@@H](C)COC[C@@H]4C)cc3)ncnc2c1 [Example 199] | –
22 | 100 to 1000 | > 1000 | > 1000 | > 1000 | – | – | COCCOc1ccc2ncnc(Nc3ccc(NC(=O)NCCC(C)(C)F)cc3)c2c1F [Example 200] | –
23 | 100 to 1000 | > 1000 | 100 to 1000 | > 1000 | – | – | COCCOc1ccc2ncnc(Nc3ccc(NC(=O)CC(=O)NC4CCCC4)cc3)c2c1F [Example 201] | –
24 | 100 to 1000 | > 1000 | 100 to 1000 | > 1000 | – | – | COCCOc1ccc2ncnc(Nc3ccc(NC(=O)CC(=O)NC4CCC4)cc3)c2c1F [Example 207] | –
25 | > 1000 | > 1000 | > 1000 | > 1000 | – | – | COCCOc1ccc2ncnc(Nc3ccc(NC(=O)CC(=O)NC(C)(C)C)cc3)c2c1F [Example 208] | –
26 | – | > 1000 | 100 to 1000 | > 1000 | – | – | COCCOc1cc(F)c2c(Nc3ccc(NC(=O)CC(=O)N4[C@H](C)COC[C@@H]4C)cc3)ncnc2c1 [Example 212] | –
27 | 10 to 100 | 10 to 100 | 10 to 100 | 10 to 100 | – | – | COCCOc1cc(F)c2c(Nc3ccc(NC(=O)CC(=O)N4CCC[C@@H]4C(C)C)cc3)ncnc2c1 [Example 214] | –
28 | 10 to 100 | 100 to 1000 | 100 to 1000 | 100 to 1000 | – | – | COCCOc1ccc2ncnc(Nc3ccc(NC(=O)NCCC(C)(C)OC)cc3)c2c1F [Example 215] | –
29 | 10 to 100 | 100 to 1000 | 100 to 1000 | 100 to 1000 | – | – | COCCOc1ccc2ncnc(Nc3ccc(NC(=O)NCCC(C)(C)C#N)cc3)c2c1F [Example 216] | –
30 | 100 to 1000 | > 1000 | 100 to 1000 | > 1000 | – | – | COCCOc1ccc2ncnc(Nc3ccc(NC(=O)CC(=O)NCC(C)(C)C)cc3)c2c1F [Example 217] | –
31 | 10 to 100 | 10 to 100 | 10 to 100 | 10 to 100 | – | – | COc1cc(F)c2c(Nc3ccc(NC(=O)NCCC(C)(C)C#N)cc3)ncnc2c1 [Example 219] | –
32 | 10 to 100 | 100 to 1000 | 10 to 100 | 100 to 1000 | – | – | COCCOc1ccc2c(Nc3ccc(NC(=O)CC(=O)NCC(C)(C)C)cc3)ncnc2c1 [Example 221] | –
33 | 100 to 1000 | – | – | – | – | – | COCCOc1ccc2c(Nc3ccc(NC(=O)CC(=O)NCC(C)(C)C)cc3)ccnc2c1 [Example 223] | –
34 | 10 to 100 | – | – | – | – | – | CC(C)(F)CCNC(=O)Nc1ccc(Nc2ncnc3cc(OCC(=O)O)cc(F)c23)cc1 [Example 224] | –
35 | 100 to 1000 | – | – | – | – | – | COCCOc1ccc2c(Nc3ccc(NC(=O)NCCC(C)(C)F)cn3)ncnc2c1 [Example 227] | –
36 | 10 to 100 | – | – | – | – | – | COCCOc1ccc2c(Nc3ccc(NC(=O)NCCC(C)(C)OC)cn3)ncnc2c1 [Example 228] | –
37 | 100 to 1000 | – | – | – | – | – | COCCOc1ccc2c(Nc3ccc(NC(=O)CC(=O)NCC(C)(C)C)cn3)ncnc2c1 [Example 229] | –
